Structures are written as SMILES. Values joined by “and” are separate entries in the source; they are usually repeats but may differ in a detail not shown here. Equal entries are not always repeated.

Experiment [1] concerns isolated skeletal muscles. As to the kind of experiment: 2-DG uptake with muscle contraction (5 Hz electrical stimulation) in isolated muscles. Further details: species or system mouse. The conditions noted are these: for IC 2DOG: incubation 10 min. Here is the method: The soleus or EDL muscle was removed from anesthetized mice (isoflurane anesthesia) that had been denied access to food overnight, and incubated with oxygenated (95% O2/5% CO2) Krebs-Henseleit Bicarbonate (KHB) buffer (118.1 mM NaCl, 4.7 mM KCl, 1.1 mM KH2PO4, 1.2 mM MgSO4, 2.5 mM CaCl2, and 25 mM NaHCO3, pH7.4) in the presence of 11.1 mM glucose at 37 °C. The muscle specimens were then treated with the indicated concentrations of the compounds in KHB buffer containing 11.1 mM glucose and 8 mM mannitol for 10 min at 37 °C. Thereafter, the muscles were rinsed with KHB buffer containing 8 mM mannitol and the compounds for 5 min at 37 °C. Lastly, the muscles were treated with the compounds in KHB buffer containing 1 mM 2-DG (with 0.3 μCi mL^−1 [^3H]-2-DG) and 8 mM mannitol (with 0.03 μCi mL^−1 [^14C]-mannitol) for 10 min at 37 °C. After the muscle specimens were washed, they were lysed with 1 N NaOH and neutralized with 1 N HCl. The ^14C- and ^3H-specific activities were counted with a liquid scintillation counter. The specific uptake of 2-DG was calculated by subtracting the nonspecific uptake of mannitol from the total 2-DG uptake. To investigate the effects of muscle contraction, muscle contraction was induced by electrical stimulation with 5 Hz (1 ms pulse duration, 100 V) for 10 min (SEN-5201, Nihon Koden, Tokyo, Japan).

Another experiment concerns HFD-fed mice. The experiment in a line: Oral GTT in normal-chow and high-fat diet (HFD)-fed mice. It is filed as in vivo, mouse. The conditions noted are these: for Blood glucose / Plasma insulin: Glucose tolerance test, HFD, 30 mg/kg, individual animals. Here is the method: Fig. 8 Acute and chronic DS20060511 treatment improves glucose intolerance in HFD-fed and db/db mice. a Blood glucose and plasma insulin levels during an oral GTT in normal-chow (NC)- and high-fat diet (HFD)-fed mice (n = 5). Vehicle or DS20060511 (30 mg kg^−1) was given orally 15 min before the oral glucose administration (1.5 g kg^−1). Values shown are means ± SEM. *P < 0.05, **P < 0.01, ***P < 0.001 vs. the HFD vehicle by the t-test. b Effects of 10 μM DS20060511 and 100 nM insulin on 2-DG uptake in muscles isolated from NC-fed (n = 6) and HFD-fed (n = 5) mice. Values shown are means ± SEM. **P < 0.01 by one-way ANOVA followed by Tukey’s test. c, d Changes in the blood glucose levels and AUC on day 1 and day 28 during refeeding (n = 6) in db/db mice treated chronically with DS20060511 (10 mg kg^−1 day^−1). Values shown are means ± SEM. *P < 0.05, **P < 0.01, ***P < 0.001 vs. vehicle by the t-test. e Change of the HbA1c levels in the db/db (n = 6) mice at 4 weeks. Values shown are means ± SEM. *P < 0.05 vs. vehicle by the t-test.
C57BL/6 and db/db mice were purchased from CLEA Japan, Tokyo, Japan. GLUT4- knockout mice were generated at RIKEN BioResource Center, Tsukuba, Japan, according to a previously described method. eNOS-knockout mice were kindly provided by Dr. Masato Tsutsui[41],[42]. The mice were group-housed under controlled illumination (12:12 h light-dark cycle) and temperature (23 ± 2 °C) conditions and given free access to normal chow and water, unless otherwise specified. The HFD-fed obese mice were prepared by feeding C57BL/6 mice a HFD for at least 8 weeks from 6 weeks of age. […] Male mice were used for all the experiments in this study. The animal care and experimental procedures used in the study were approved by The University of Tokyo Animal Care Committee (Approval number: 27-3), and the study was carried out in accordance with the Animal Experimentation Guidelines of Daiichi Sankyo Co., Ltd (Approved number: 20000411).
Mice that had been denied access to food overnight received the indicated oral dose of DS20060511 or vehicle 15 min prior to the glucose load (1.5 g kg^−1, except for eNOS-knockout mice, which received 3.0 g kg^−1). Then, after the oral glucose load, the blood glucose levels were measured using Glutest Every in samples obtained from the tail vein at the indicated timepoints. Plasma insulin concentrations were also measured with an ELISA kit (Morinaga Institute of Biological Science, Yokohama, Japan) in blood samples collected from the tail vein at the indicated timepoints.

Setting [2] is: DS20060511 1 μM, electrical stimulation +, muscles #1-3.

With `COc1ccc2c(C)c(C(=O)O)ccc2c1C1C2=C(CC(C)(C)CC2=O)OC2=C1C(=O)CC(C)(C)C2` [DS20060511], the “IC 2DOG” value was 385 nmol/g and 372 nmol/g and 382 nmol/g in experiment [1] (setting [2]); 366 nmol/g and 368 nmol/g and 397 nmol/g in experiment [1] (DS20060511 10 μM, electrical stimulation +, muscles #1-3). The “Raio (2-DG uptake relative to unstimulated control)” value in experiment [1] (setting [2]) is 2.15 and 2.08 and 2.17. In addition, the “2-DG uptake with electrical muscle stimulation” value in experiment [1] (vs electrical stimulation alone, Fig. 6a) is “elevated to a greater degree”. The Blood glucose is 194 mg/dL and 178 mg/dL and 193 mg/dL and 108 mg/dL and 185 mg/dL in the experiment with HFD-fed mice (0 min); 331 mg/dL and 278 mg/dL and 279 mg/dL and 180 mg/dL and 270 mg/dL in the experiment with HFD-fed mice (15 min); 200 mg/dL and 213 mg/dL and 232 mg/dL and 161 mg/dL in the experiment on HFD-fed mice (30 min); 209 mg/dL and 214 mg/dL and 235 mg/dL and 141 mg/dL and 229 mg/dL in the experiment on HFD-fed mice (60 min); 199 mg/dL and 201 mg/dL and 204 mg/dL and 164 mg/dL and 209 mg/dL with HFD-fed mice (90 min); 188 mg/dL and 154 mg/dL and 227 mg/dL and 155 mg/dL and 189 mg/dL in the experiment on HFD-fed mice (120 min). For the same compound, the Blood glucose in the experiment on HFD-fed mice (-15 min) was 212 mg/dL and 167 mg/dL and 176 mg/dL and 120 mg/dL and 197 mg/dL. The Plasma insulin was 0.79 ng/mL and 1.09 ng/mL and 0.57 ng/mL and 0.32 ng/mL and 0.69 ng/mL in the experiment on HFD-fed mice (0 min); 3.22 ng/mL and 2.72 ng/mL and 2.47 ng/mL and 1.43 ng/mL and 1.91 ng/mL with HFD-fed mice (15 min); 1.03 ng/mL and 1.28 ng/mL and 0.97 ng/mL and 0.53 ng/mL and 0.78 ng/mL in the experiment on HFD-fed mice (30 min); 1.31 ng/mL and 2.09 ng/mL and 1.16 ng/mL and 0.67 ng/mL in the experiment on HFD-fed mice (-15 min). In addition, in the experiment with HFD-fed mice (HFD-fed mice, 30 mg kg−1 po), the “blood glucose levels during oral GTT (in words)” value is recorded as “significantly decreased the blood glucose levels”. Besides, the “plasma insulin levels during oral GTT (in words)” value with HFD-fed mice (HFD-fed mice, 30 mg kg−1 po) was “rather decreased”.
